In patent publication US20250353848A1, “HETEROCYCLIC PAD4 INHIBITORS” (Celgene Corporation, priority 2022, published 2025):

How the values were obtained:
hPAD4 enzyme [1] = target: T1, hPAD4 enzyme (Homo sapiens, UniProt Q9UM07); experiment: RFMS Assay 1 (rapid-fire mass spectrum PAD4 inhibition assay, BAEE substrate); assay type: biochemical; details: 5 nM hPAD4 enzyme, 250 μM BAEE, 30 mins compound and enzyme preincubation at 37° C., 90 min enzyme/substrate reaction
Procedure, shortened: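 Human PAD4 (5 nM) preincubated 30 min at 37 °C with compound (top 50 μM, 0.5% DMSO), then 250 μM BAEE for 90 min at 37 °C in pH 7.5 HEPES with 50 μM calcium, 5 μM TPEN, 1 mM DTT. Product derivatized with phenyl glyoxal; citrulline product quantified by RapidFire MS/MS MRM, normalized to internal standard.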

hPAD4 enzyme [2] = target: T1, hPAD4 enzyme; experiment: RFMS Assay 2 (rapid-fire mass spectrum PAD4 inhibition assay, peptide substrate); assay type: biochemical; details: 35 nM recombinant human PAD4, substrate TSTGGRQGSHH, room temperature for 30 minutes; read-out: human PAD4 (hPAD4) IC50, RFMS Assay 2
Procedure: Stock compounds were dissolved and stored in 100% DMSO. Compound solutions were prepared via serial dilution at 3-fold intervals in DMSO with top compound concentration at […] in each assay. 0.25 μl of compound solution was transferred from the compound plate to the assay plate by using an acoustic dispenser. Final assay conditions: • Total reaction volume: 25 μl • Assay buffer: […] pH 7.4, 200 mM NaCl, 2 mM CaCl2, 5 mM DTT • 35 nM recombinant human PAD4 • 500 µM TSTGGRQGSHH (SEQ ID NO: 1) • 1.2% DMSO • Stop solution: 10% formic acid
Reaction mixtures were incubated at room temperature for 30 minutes. 10 μl each of the reaction mixtures was then mixed with 40 μl of 10% formic acid in a microtiter plate. The plate was frozen at −80° C. before shipping out on dry ice for RapidFire mass spectroscopy analysis.
Thawed samples were loaded onto the Rapid Fire 300 system (Agilent) wherein they were first sipped for 250 ms and then loaded onto a Agilent “C” (C18) cartridge using a mobile phase of water containing 0.09% formic acid/0.01% trifluoroacetic acid for 3000 ms desalting flowing at a rate of 1.5 ml/min. Once the samples were loaded and washed, a mobile phase of acetonitrile containing 0.09% formic acid/0.01% trifluoroacetic acid was used to elute the samples directly onto a Sciex API4000 triple quadrupole mass spectrometer for 3000 ms at a flow rate of 1.25 ml/min.
MRM transitions for substrate and product were monitored in positive ESI mode at m/z=562.3/969.7 and m/z=562.8/541.3 respectively. The dwell time for each transition was set at 100 ms, and the ESI voltage was used at 5500 with a source temperature of 650° C. Extracted ion peaks for each transition were integrated using the Rapid Fire Integrator software.

T1 sequence (Q9UM07 whole entry): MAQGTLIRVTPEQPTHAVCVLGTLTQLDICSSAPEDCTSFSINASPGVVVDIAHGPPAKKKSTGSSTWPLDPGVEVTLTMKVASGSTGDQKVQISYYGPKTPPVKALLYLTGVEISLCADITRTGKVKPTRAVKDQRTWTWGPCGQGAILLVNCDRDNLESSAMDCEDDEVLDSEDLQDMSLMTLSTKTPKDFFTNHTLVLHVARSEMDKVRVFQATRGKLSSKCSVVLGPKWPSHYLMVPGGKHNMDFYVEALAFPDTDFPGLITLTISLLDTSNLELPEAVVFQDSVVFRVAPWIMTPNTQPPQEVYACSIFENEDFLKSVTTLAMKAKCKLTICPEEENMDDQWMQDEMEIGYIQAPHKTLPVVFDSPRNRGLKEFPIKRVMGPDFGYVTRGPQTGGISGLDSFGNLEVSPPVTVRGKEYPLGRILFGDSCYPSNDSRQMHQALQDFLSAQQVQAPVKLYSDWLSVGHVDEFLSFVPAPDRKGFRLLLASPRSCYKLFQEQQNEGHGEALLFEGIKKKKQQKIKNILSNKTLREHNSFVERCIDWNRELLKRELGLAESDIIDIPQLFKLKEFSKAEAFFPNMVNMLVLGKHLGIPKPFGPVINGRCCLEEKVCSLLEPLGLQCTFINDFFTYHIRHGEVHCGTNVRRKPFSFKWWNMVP

Row | Compound | IC50 (hPAD4 enzyme [1]) [nM] | IC50 (hPAD4 enzyme [2]) [nM]
1 | CC(Cc1cnco1)Oc1cc(F)cc2cc(-c3nc4cc5c(nc4n3C)CCN(C[C@H](N)CF)C5=O)n(CC3CC3)c12 (single isomer, unassigned) [Example 65a] | ≤ 10 | 101 to 500
2 | COc1cccc2cc(-c3nc4cc5c(nc4n3C)CCN(C[C@H](N)CF)C5=O)n(CC3CC3)c12 [Example 1, (S)-7-(2-amino-3-fluoropropyl)-2-(1-(cyclopropylmethyl)-7-methoxy-1H-indol-2-yl)-3-methyl-3,5,6,7-tetrahydro-8H-imidazo[4,5-b][1,6]naphthyridin-8-one] | 101 to 500 | 501 to 1000
3 | COCCn1c(-c2nc3cc4c(nc3n2C)CCN(C[C@H](N)CF)C4=O)cc2cccc(OC)c21 [Example 2, (S)-7-(2-amino-3-fluoropropyl)-2-(7-methoxy-1-(2-methoxyethyl)-1H-indol-2-yl)-3-methyl-3,5,6,7-tetrahydro-8H-imidazo[4,5-b][1,6]naphthyridin-8-one] | > 1000 | > 1000
4 | COc1cccc2cc(-c3nc4cc5c(nc4n3C)CCN(C[C@H](N)CF)C5=O)n(Cc3ccno3)c12 [Example 7, (S)-7-(2-amino-3-fluoropropyl)-2-(1-(isoxazol-5-ylmethyl)-7-methoxy-1H-indol-2-yl)-3-methyl-3,5,6,7-tetrahydro-8H-imidazo[4,5-b][1,6]naphthyridin-8-one] | 11 to 100 | 101 to 500
5 | COc1cccc2cc(-c3nc4cc5c(nc4n3C)CCN(C[C@H](N)CF)C5=O)n(Cc3ncco3)c12 [Example 8, (S)-7-(2-amino-3-fluoropropyl)-2-(7-methoxy-1-(oxazol-2-ylmethyl)-1H-indol-2-yl)-3-methyl-3,5,6,7-tetrahydro-8H-imidazo[4,5-b][1,6]naphthyridin-8-one] | 501 to 1000 | 501 to 1000
6 | COc1cccc2cc(-c3nc4cc5c(nc4n3C)CCN(C[C@H](N)CF)C5=O)n(Cc3ncc(C)o3)c12 [Example 11, (S)-7-(2-amino-3-fluoropropyl)-2-(7-methoxy-1-((5-methyloxazol-2-yl)methyl)-1H-indol-2-yl)-3-methyl-3,5,6,7-tetrahydro-8H-imidazo[4,5-b][1,6]naphthyridin-8-one] | 101 to 500 | 101 to 500
7 | COc1cccc2cc(-c3nc4cc5c(nc4n3C)CCN(C[C@H](N)CF)C5=O)n(Cc3cc(C)no3)c12 [Example 12, (S)-7-(2-amino-3-fluoropropyl)-2-(7-methoxy-1-((3-methylisoxazol-5-yl)methyl)-1H-indol-2-yl)-3-methyl-3,5,6,7-tetrahydro-8H-imidazo[4,5-b][1,6]naphthyridin-8-one] | 101 to 500 | 101 to 500
8 | COc1cccc2cc(-c3nc4cc5c(nc4n3C)CCN(C[C@H](N)CF)C5=O)n(Cc3nc(C)cs3)c12 [Example 14, (S)-7-(2-amino-3-fluoropropyl)-2-(7-methoxy-1-((4-methylthiazol-2-yl)methyl)-1H-indol-2-yl)-3-methyl-3,5,6,7-tetrahydro-8H-imidazo[4,5-b][1,6]naphthyridin-8-one] | 11 to 100 | 501 to 1000
9 | COc1cccc2cc(-c3nc4cc5c(nc4n3C)CCN(C[C@H](N)CF)C5=O)n(CC3(F)CC3)c12 [Example 15, (S)-7-(2-amino-3-fluoropropyl)-2-(1-((1-fluorocyclopropyl)methyl)-7-methoxy-1H-indol-2-yl)-3-methyl-3,5,6,7-tetrahydro-8H-imidazo[4,5-b][1,6]naphthyridin-8-one] | 11 to 100 | 101 to 500
10 | COc1cccc2cc(-c3nc4cc5c(nc4n3C)CCN(C[C@H](N)CF)C5=O)n(CC3OCCO3)c12 [Example 16, (S)-2-(1-((1,3-dioxolan-2-yl)methyl)-7-methoxy-1H-indol-2-yl)-7-(2-amino-3-fluoropropyl)-3-methyl-3,5,6,7-tetrahydro-8H-imidazo[4,5-b][1,6]naphthyridin-8-one] | 101 to 500 | 101 to 500
11 | Cn1c(-c2cc3cccnc3n2CC2CC2)nc2cc3c(nc21)CCN(C[C@H](N)CF)C3=O [Example 19, (S)-7-(2-amino-3-fluoropropyl)-2-(1-(cyclopropylmethyl)-1H-pyrrolo[2,3-b]pyridin-2-yl)-3-methyl-3,5,6,7-tetrahydro-8H-imidazo[4,5-b][1,6]naphthyridin-8-one] | 501 to 1000 | > 1000
12 | Cn1c(-c2cc3ccccc3n2CC2CC2)nc2cc3c(nc21)CCN(C[C@H](N)CF)C3=O [Example 20, (S)-7-(2-amino-3-fluoropropyl)-2-(1-(cyclopropylmethyl)-1H-indol-2-yl)-3-methyl-3,5,6,7-tetrahydro-8H-imidazo[4,5-b][1,6]naphthyridin-8-one] | > 1000 | 501 to 1000
13 | COc1cc(F)cc2cc(-c3nc4cc5c(nc4n3C)CCN(C[C@H](N)CF)C5=O)n(Cc3ccno3)c12 [Example 22, (S)-7-(2-amino-3-fluoropropyl)-2-(5-fluoro-1-(isoxazol-5-ylmethyl)-7-methoxy-1H-indol-2-yl)-3-methyl-3,5,6,7-tetrahydro-8H-imidazo[4,5-b][1,6]naphthyridin-8-one] | 101 to 500 | 101 to 500
14 | COc1c(F)ccc2cc(-c3nc4cc5c(nc4n3C)CCN(C[C@H](N)CF)C5=O)n(Cc3ccno3)c12 [Example 23, (S)-7-(2-amino-3-fluoropropyl)-2-(6-fluoro-1-(isoxazol-5-ylmethyl)-7-methoxy-1H-indol-2-yl)-3-methyl-3,5,6,7-tetrahydro-8H-imidazo[4,5-b][1,6]naphthyridin-8-one] | 11 to 100 | 501 to 1000
15 | C[C@@H](N)CN1CCc2nc3c(cc2C1=O)nc(-c1cc2ccccc2n1CC1CC1)n3C [Example 24, (R)-7-(2-aminopropyl)-2-(1-(cyclopropylmethyl)-1H-indol-2-yl)-3-methyl-3,5,6,7-tetrahydro-8H-imidazo[4,5-b][1,6]naphthyridin-8-one] | 11 to 100 | 501 to 1000
16 | COc1cccc2cc(-c3nc4cc5c(nc4n3C)CCN(C[C@H]3COCCN3)C5=O)n(CC3(F)CC3)c12 [Example 26, (S)-2-(1-((1-fluorocyclopropyl)methyl)-7-methoxy-1H-indol-2-yl)-3-methyl-7-(morpholin-3-ylmethyl)-3,5,6,7-tetrahydro-8H-imidazo[4,5-b][1,6]naphthyridin-8-one] | 101 to 500 | 101 to 500
17 | Cn1c(-c2cc3cccc(OC[C@@H]4CCC(=O)NC4)c3n2CC2CC2)nc2cc3c(nc21)CCN(C[C@H](N)CF)C3=O [Example 37, 7-((S)-2-amino-3-fluoropropyl)-2-(1-(cyclopropylmethyl)-7-(((R)-6-oxopiperidin-3-yl)methoxy)-1H-indol-2-yl)-3-methyl-3,5,6,7-tetrahydro-8H-imidazo[4,5-b][1,6]naphthyridin-8-one] |  | 501 to 1000
18 | Cn1c(-c2cc3cccc(OC[C@H]4CNC(=O)C4)c3n2CC2CC2)nc2cc3c(nc21)CCN(C[C@H](N)CF)C3=O [Example 60, 7-((S)-2-amino-3-fluoropropyl)-2-(1-(cyclopropylmethyl)-7-(((R)-5-oxopyrrolidin-3-yl)methoxy)-1H-indol-2-yl)-3-methyl-3,5,6,7-tetrahydro-8H-imidazo[4,5-b][1,6]naphthyridin-8-one] |  | 101 to 500

The remaining lines, values ahead:

Row | IC50 (hPAD4 enzyme [1]) [nM] | IC50 (hPAD4 enzyme [2]) [nM] | Compound
19 | 11 to 100 | 11 to 100 | CC(Oc1cccc2cc(-c3nc4cc5c(nc4n3C)CCN(C[C@H](N)CF)C5=O)n(CC3CC3)c12)c1cc[nH]n1 (single isomer, unassigned) [Example 49a]
20 | 101 to 500 | 101 to 500 | CC(Oc1cccc2cc(-c3nc4cc5c(nc4n3C)CCN(C[C@H](N)CF)C5=O)n(CC3CC3)c12)c1cc[nH]n1 (single isomer, unassigned) [Example 49b]
21 | ≤ 10 | 11 to 100 | Cn1c(-c2cc3cccc(OC(F)Cn4ccnc4)c3n2CC2CC2)nc2cc3c(nc21)CCN(C[C@H](N)CF)C3=O (single isomer, unassigned) [Example 74a]
22 | ≤ 10 | 11 to 100 | Cn1c(-c2cc3cccc(OC(F)Cn4ccnc4)c3n2CC2CC2)nc2cc3c(nc21)CCN(C[C@H](N)CF)C3=O (single isomer, unassigned) [Example 74b]
23 | ≤ 10 | 11 to 100 | Cn1c(-c2cc3cccc(OC(F)Cn4cncc4F)c3n2CC2CC2)nc2cc3c(nc21)CCN(C[C@H](N)CF)C3=O (single isomer, unassigned) [Example 75a]
24 | ≤ 10 | 11 to 100 | Cn1c(-c2cc3cccc(OC(F)Cn4cncc4F)c3n2CC2CC2)nc2cc3c(nc21)CCN(C[C@H](N)CF)C3=O (single isomer, unassigned) [Example 75b]
